# According to US20110027352A1, “COMPOUNDS FOR USE IN THE TREATMENT OF NEUROPATHIC PAIN” (priority 2008, published 2011):
# Entries after “also recorded” stand apart in the source; their conditions may differ. Structures can show the parent of a compound that is named as a salt.
# Columns and labels:
# Assay type in all cases: in vivo, C57BL/6J mice
# [1] = tested on: mechanical allodynia of the neuropathic (“Cuff”) mice; test: Cotreatment with adrenoreceptor antagonists in Cuff mice relieved by chronic nortriptylin or beta-agonist treatment, von Frey test; conditions: for Effect of coadministered beta2-adrenoreceptor antagonist ICI 118,551 on the allodynia of agonist-treated Cuff mice: ICI 118,551 2 mg/kg intraperitoneal, after 3 weeks of agonist treatment (doses as in chronic treatment; terbutalin 0.5 mg/kg), 3 to 6 days of cotreatment; for Effect of ICI 118,551 on the therapeutic effect of chronic agonist treatment on neuropathic allodynia, summary statement: chronic treatment with the agonist plus beta2-adrenoreceptor antagonist ICI 118,551; for Blocking of the effect of antidepressants on neuropathic allodynia by repeated antagonist treatment, summary statement: doses as in examples 3 to 6
# Method: (§1) The model is obtained by placing a polyethylene cuff around the main branch of the right sciatic nerve of each mouse. Before any surgical procedure, the mice were assigned to the various experimental groups in such a way that the baseline mechanical nociception threshold and the weight are equivalent between the various groups. The surgical procedure was carried out under ketamin-xylazin anesthesia (ketamin: 17 mg/ml, xylazin 2.5 mg/ml, intraperitoneal injection in a proportion of 4 ml/kg) (limited liability company Centravet, Taden, France). The common branch of the sciatic nerve was exposed and a section 2 mm long of a hollow PE-20 polyethylene tube (“Harvard Apparatus”, Les Ulis, France) was placed around said branch (“Cuff” group). […] Control mice were operated on according to the same procedure, but without placing the cuff (“Sham” group). The experimental groups are made up of at least 4 mice for each control (“Sham”) group and at least 5 mice for each neuropathic (“Cuff”) group.
# For the tests, in the examples which follow, the pressure is exerted on the foot of the mice by means of von Frey filaments (Bioseb, Chaville, France) (Benbouzid, M. et al. Biological Psychiatry 63:633-636 (2008) (10) and Benbouzid, M. et al. European Journal of Pain 12:591-599 (2008) (11)). The mice are placed in transparent Plexiglas (registered trademark) boxes (7 cm×9 cm×7 cm) placed on a raised grid. Before the test, the mice are allowed to become accustomed to this device for 15 minutes. During the test, the von Frey filaments are applied to the plantar surface of each back foot according to ascending forces (from 0.16 g up to a foot withdrawal response, or up to a maximum of 10 g). Each filament is tested 5 times per foot and the threshold is defined by the presence of 3 or more withdrawals observed over the 5 tests. Before the surgery as described above, the animals were pretested in order to establish their baseline nociceptive response. During the chronic treatment experiments and those of repeated injection of antagonists, the tests are carried out in the mornings before the first injection of the day. During the acute agonist injection experiments, the tests are carried out after the first injection according to the time course as presented on the graphs.
# The procedure for intrathecal (i.t.) injection of the beta2-adrenoreceptor antagonist ICI 118,551 (3 μg in 10 μl) is carried out under halothane gas anesthesia according to the protocol described by Inoue et al. (Nature Medicine 2004, 10:712-718 (12)). These i.t. injections are carried out just before the intraperitoneal injection of salbutamol (2 mg/kg, i.p.). A 27-gauge injection needle connected to a 50 μl Hamilton syringe is inserted, between the L5 and L6 vertebrae, into the subarachnoid space. The correct placement of the needle is verified by the presence of a reflex movement of the tail of the mouse. The mice are pretested before this cotreatment procedure, and then cotreated twice (a morning and the corresponding evening) before being retested the following morning for their mechanical nociceptive sensitivity.
# [2] = tested on: mechanical allodynia of the neuropathic (“Cuff”) mice; test: Sciatic nerve cuff murine model of neuropathic pain, von Frey filament test in neuropathic (Cuff) mice; conditions: for Allodynia in neuropathic (Cuff) animals after chronic treatment, recapitulation (FIG. 25): chronic treatment (14-21 days), doses and modes as in examples 7, 9 to 14 and 20 (formoterol 0.5 mg/kg, terbutalin 5 mg/kg); for Mechanical allodynia of Cuff mice after the first (acute) injection: mice neuropathic for 2 weeks; for Effect on neuropathic allodynia acutely after the first injection, summary statement: first injection of the agonist, doses as in examples 7, 9, 11 and 15
# Method: (§2) The experiments were carried out on adult male mice. The pharmacological experiments were carried out using C57BL/6J mice (3-to-6 weeks old on their arrival, Charles River, L'Arbresle, France).
# All the experiments began with mice that were 6-to-9 weeks old. […] For all the other experiments, the mice were combined at four to five per cage and kept under alternating 12-hour day/night (light at 6 am) with food and water ad libitum.
# as §1
# (§3) The mice are placed in transparent Plexiglas (registered trademark) boxes (7 cm×9 cm×7 cm) placed on a raised grid. Before the test, the mice are allowed to become accustomed to this device for 15 minutes. During the test, the von Frey filaments are applied to the plantar surface of each back foot according to ascending forces (from 0.16 g up to a foot withdrawal response, or up to a maximum of 10 g). Each filament is tested 5 times per foot and the threshold is defined by the presence of 3 or more withdrawals observed over the 5 tests. Before the surgery as described above, the animals were pretested in order to establish their baseline nociceptive response. During the chronic treatment experiments and those of repeated injection of antagonists, the tests are carried out in the mornings before the first injection of the day. During the acute agonist injection experiments, the tests are carried out after the first injection according to the time course as presented on the graphs.
# The surgery for installing the cuff corresponds to day 0.
# (§4) For all the treatments carried out by injection, said injections were given intraperitoneally in a volume of 50 microL per 10 mg of body weight.
# [3] = tested on: nociceptive sensitivity of the mice of the control (“Sham”) group; test: von Frey filament test in control (Sham) mice operated without cuff; conditions: for Sensitivity of control (Sham) animals under chronic treatment, recapitulation (FIG. 26): chronic treatment (14-21 days), doses and modes as in examples 2, 7, 9 to 14 and 20 (formoterol 0.5 mg/kg, terbutalin 5 mg/kg); for Control (Sham) mice after the first administration: intraperitoneal, first injection; for Nociceptive sensitivity of control (Sham) mice under chronic treatment: repeated injections, doses and modes as for the Cuff mice of the same example
# Method: as §2, §1, §3, §4
# [4] = 0.5 mg/kg, injection twice a day
# [5] = antagonist 2 mg/kg intraperitoneal with nortriptylin 5 mg/kg twice a day, after 3 weeks of nortriptylin (metoprolol, ICI 118,551: for 6 days)
# [6] = intraperitoneal antagonist, doses as for the Cuff mice of the same example (ICI 118,551 2 mg/kg, yohimbin 2 mg/kg, propranolol 5 mg/kg), with or without cotreatment
compound,measurement,setting,value
"CC(C)NCC(O)c1ccc(O)c(O)c1 (racemic) [isoprenalin, DL-isoproterenol chloride]","Effect of coadministered beta2-adrenoreceptor antagonist ICI 118,551 on the allodynia of agonist-treated Cuff mice",[1],causes the allodynia to reappear
same,"Effect of ICI 118,551 on the therapeutic effect of chronic agonist treatment on neuropathic allodynia, summary statement",[1],blocks the therapeutic effect
same,Mechanical allodynia in neuropathic (Cuff) mice after chronic treatment,[2]; [4],completely suppresses the mechanical allodynia
same,"Allodynia in neuropathic (Cuff) animals after chronic treatment, recapitulation (FIG. 25)",[2],"relieve this allodynia; also recorded: causes the neuropathic pain, for example the neuropathic allodynia, to completely disappear"
same,"Sensitivity of control (Sham) animals under chronic treatment, recapitulation (FIG. 26)",[3],do not affect the control animals; also recorded: does not aspecifically affect the sensitivity of the control animals
"COCCc1ccc(OCC(O)CNC(C)C)cc1 (racemic) [metoprolol, (+/−)-metoprolol (+)-tartrate]",Effect of antagonist cotreatment on the therapeutic benefit of nortriptylin in Cuff mice,[1]; [5],has no influence on the therapeutic benefit
same,"Blocking of the effect of antidepressants on neuropathic allodynia by repeated antagonist treatment, summary statement",[1],only the beta2-adrenoreceptor antagonist blocks the effect of antidepressants
"CC(C)NCC(O)COc1cccc2ccccc12 (racemic) [propranolol, (+/−)-propranolol hydrochloride]",Effect of antagonist cotreatment on the therapeutic benefit of nortriptylin in Cuff mice,"[1]; antagonist 5 mg/kg intraperitoneal with nortriptylin 5 mg/kg twice a day, after 3 weeks of nortriptylin",causes the allodynia to reappear in a few days
same,"Blocking of the effect of antidepressants on neuropathic allodynia by repeated antagonist treatment, summary statement",[1],blocks the therapeutic effect of antidepressants
same,Nociceptive sensitivity of control (Sham) mice under antagonist injections,"[3]; intraperitoneal antagonist, doses as for the Cuff mice of the same example (ICI 118,551 2 mg/kg, yohimbin 2 mg/kg, propranolol 5 mg/kg), with or without cotreatment, hydrochloride",not affected; also recorded: does not affect the response of the control animals
"CC(C)NCC(O)c1ccc(NS(C)(=O)=O)cc1.Cl (racemic) [sotatol, (+/−) sotatol hydrochloride]","Effect of antagonist cotreatment with nortriptylin, compared with propranolol","[1]; 2 mg/kg in place of propranolol 5 mg/kg, same results = as propranolol (allodynia reappears in Cuff, Sham not affected)",same results
"Cc1ccc(OCC(O)C(C)NC(C)C)c2c1CCC2 (stereo not shown) [ICI 118,551]",Time to reappearance of allodynia after the beginning of the cotreatment with nortriptylin,"[1]; ICI 118,551 2 mg/kg intraperitoneal coadministered with nortriptylin, Cuff mice",≤ 48 h
same,Effect of antagonist cotreatment on the therapeutic benefit of nortriptylin in Cuff mice,[1]; [5],leads to reappearance of the neuropathic allodynia
same,"Blocking of the effect of antidepressants on neuropathic allodynia by repeated antagonist treatment, summary statement",[1],blocks the effect of antidepressants
same,Nociceptive sensitivity of control (Sham) mice under antagonist injections,"[3]; ICI 118,551 intraperitoneal (2 mg/kg) or intrathecal (3 μg in 10 μl), with salbutamol",not affected
same,Nociceptive sensitivity of control (Sham) mice under antagonist injections,[3]; [6],not affected; also recorded: does not affect the response of the control animals
CCc1ccccc1OC[C@@H](O)CN[C@H]1CCCc2ccccc21 [SR59230A],Effect of antagonist cotreatment on the therapeutic benefit of nortriptylin in Cuff mice,"[1]; antagonist 2.5 mg/kg intraperitoneal for 6 days with nortriptylin, after 3 weeks of nortriptylin",has no influence on the therapeutic benefit
same,"Blocking of the effect of antidepressants on neuropathic allodynia by repeated antagonist treatment, summary statement",[1],only the beta2-adrenoreceptor antagonist blocks the effect of antidepressants
CC(C)NCC(O)COc1ccc(CC(N)=O)cc1 (stereo not shown) [atenolol],"Effect of antagonist cotreatment with nortriptylin, compared with metoprolol","[1]; 5 mg/kg in place of metoprolol 2 mg/kg, same results = as metoprolol (no influence on the therapeutic benefit)",same results
CN(C)C(=O)Oc1cc(OC(=O)N(C)C)cc(C(O)CNC(C)(C)C)c1 (stereo not shown) [bambuterol],"Effect of coadministered beta2-adrenoreceptor antagonist ICI 118,551 on the allodynia of agonist-treated Cuff mice",[1],causes the allodynia to reappear
same,"Effect of ICI 118,551 on the therapeutic effect of chronic agonist treatment on neuropathic allodynia, summary statement",[1],blocks the therapeutic effect
same,Mechanical allodynia in neuropathic (Cuff) mice after chronic treatment,[2]; [4],completely suppresses the mechanical allodynia
same,Mechanical allodynia of Cuff mice after the first (acute) injection,"[2]; 0.5 mg/kg, intraperitoneal",has no anti-allodynia effect
same,"Allodynia in neuropathic (Cuff) animals after chronic treatment, recapitulation (FIG. 25)",[2],"relieve this allodynia; also recorded: causes the neuropathic pain, for example the neuropathic allodynia, to completely disappear"
same,"Effect on neuropathic allodynia acutely after the first injection, summary statement",[2],not observed acutely after the first injection
same,Control (Sham) mice after the first administration,[3]; bambuterol 0.5 mg/kg,unaffected
same,"Sensitivity of control (Sham) animals under chronic treatment, recapitulation (FIG. 26)",[3],do not affect the control animals; also recorded: does not aspecifically affect the sensitivity of the control animals
same,Nociceptive sensitivity of control (Sham) mice under chronic treatment,[3],not affected
CC(C)(C)NCC(O)c1cc(Cl)c(N)c(Cl)c1 (stereo not shown) [clenbuterol],"Effect of coadministered beta2-adrenoreceptor antagonist ICI 118,551 on the allodynia of agonist-treated Cuff mice",[1],causes the allodynia to reappear
same,"Effect of ICI 118,551 on the therapeutic effect of chronic agonist treatment on neuropathic allodynia, summary statement",[1],blocks the therapeutic effect
same,Mechanical allodynia of Cuff mice after the first (acute) injection,"[2]; 0.3 mg/kg, intraperitoneal",has no effect on the mechanical allodynia
same,Mechanical allodynia in neuropathic (Cuff) mice after chronic treatment,"[2]; 0.3 mg/kg, intraperitoneal, twice a day",completely suppresses the mechanical allodynia
same,"Allodynia in neuropathic (Cuff) animals after chronic treatment, recapitulation (FIG. 25)",[2],"relieve this allodynia; also recorded: causes the neuropathic pain, for example the neuropathic allodynia, to completely disappear"
same,"Effect on neuropathic allodynia acutely after the first injection, summary statement",[2],not observed acutely after the first injection
same,"Sensitivity of control (Sham) animals under chronic treatment, recapitulation (FIG. 26)",[3],do not affect the control animals; also recorded: does not aspecifically affect the sensitivity of the control animals
same,Control (Sham) mice after the first administration,[3]; clenbuterol 0.3 mg/kg,unaffected
same,Nociceptive sensitivity of control (Sham) mice under chronic treatment,[3],not affected
CC(Cc1ccc(O)cc1)NCC(O)c1cc(O)cc(O)c1 (stereo not shown) [fenoterol],"Effect of coadministered beta2-adrenoreceptor antagonist ICI 118,551 on the allodynia of agonist-treated Cuff mice",[1],causes the allodynia to reappear
same,"Effect of ICI 118,551 on the therapeutic effect of chronic agonist treatment on neuropathic allodynia, summary statement",[1],blocks the therapeutic effect
same,Mechanical allodynia of Cuff mice after the first (acute) injection,"[2]; 0.7 mg/kg, intraperitoneal",has no effect on the mechanical allodynia
same,Mechanical allodynia in neuropathic (Cuff) mice after chronic treatment,"[2]; 0.7 mg/kg, twice a day",completely suppresses the mechanical allodynia
same,"Allodynia in neuropathic (Cuff) animals after chronic treatment, recapitulation (FIG. 25)",[2],"relieve this allodynia; also recorded: causes the neuropathic pain, for example the neuropathic allodynia, to completely disappear"
same,"Effect on neuropathic allodynia acutely after the first injection, summary statement",[2],not observed acutely after the first injection
same,"Sensitivity of control (Sham) animals under chronic treatment, recapitulation (FIG. 26)",[3],do not affect the control animals; also recorded: does not aspecifically affect the sensitivity of the control animals
same,Nociceptive sensitivity of control (Sham) mice under chronic treatment,[3],not affected
CC(C)NCC(O)c1cc(O)cc(O)c1 (stereo not shown) [metaproterenol],Mechanical allodynia in neuropathic (Cuff) mice after chronic treatment,"[2]; 1 mg/kg, injection twice a day",completely suppresses the mechanical allodynia
same,Mechanical allodynia in neuropathic (Cuff) mice after chronic application of a gel to the skin,"[2]; 0.1 ml of gel twice a day, 1 mg/ml metaproterenol hemisulfate in 5% hydroxyethylcellulose gel, from 8 days after surgery",relieves the mechanical allodynia; also recorded: relieves neuropathic allodynia
same,"Allodynia in neuropathic (Cuff) animals after chronic treatment, recapitulation (FIG. 25)",[2],"relieve this allodynia; also recorded: causes the neuropathic pain, for example the neuropathic allodynia, to completely disappear"
same,"Sensitivity of control (Sham) animals under chronic treatment, recapitulation (FIG. 26)",[3],do not affect the control animals; also recorded: does not aspecifically affect the sensitivity of the control animals
CCC(NC(C)C)C(O)c1ccc(O)c2[nH]c(=O)ccc12 (stereo not shown) [procaterol],"Effect of ICI 118,551 on the therapeutic effect of chronic agonist treatment on neuropathic allodynia, summary statement",[1],blocks the therapeutic effect
same,Mechanical allodynia in neuropathic (Cuff) mice after chronic treatment,"[2]; 0.8 mg/kg, injection twice a day",completely suppresses the mechanical allodynia
same,"Allodynia in neuropathic (Cuff) animals after chronic treatment, recapitulation (FIG. 25)",[2],"relieve this allodynia; also recorded: causes the neuropathic pain, for example the neuropathic allodynia, to completely disappear"
same,"Sensitivity of control (Sham) animals under chronic treatment, recapitulation (FIG. 26)",[3],do not affect the control animals; also recorded: does not aspecifically affect the sensitivity of the control animals
CC(NCCc1ccc(O)cc1)C(O)c1ccc(O)cc1 (stereo not shown) [ritodrin],"Effect of coadministered beta2-adrenoreceptor antagonist ICI 118,551 on the allodynia of agonist-treated Cuff mice",[1],causes the allodynia to reappear
same,"Effect of ICI 118,551 on the therapeutic effect of chronic agonist treatment on neuropathic allodynia, summary statement",[1],blocks the therapeutic effect
same,Mechanical allodynia in neuropathic (Cuff) mice after chronic treatment,"[2]; 10 mg/kg, injection twice a day",completely suppresses the mechanical allodynia
same,"Allodynia in neuropathic (Cuff) animals after chronic treatment, recapitulation (FIG. 25)",[2],"relieve this allodynia; also recorded: causes the neuropathic pain, for example the neuropathic allodynia, to completely disappear"
same,"Sensitivity of control (Sham) animals under chronic treatment, recapitulation (FIG. 26)",[3],do not affect the control animals; also recorded: does not aspecifically affect the sensitivity of the control animals
COC(=O)[C@@H]1[C@H]2C[C@H]3c4[nH]c5ccccc5c4CCN3C[C@@H]2CC[C@@H]1O [yohimbin],Effect of antagonist cotreatment on the therapeutic benefit of nortriptylin in Cuff mice,[1]; [5],has no influence on the therapeutic benefit
same,"Blocking of the effect of antidepressants on neuropathic allodynia by repeated antagonist treatment, summary statement",[1],ineffective in blocking the analgesic effect of antidepressants
same,Nociceptive sensitivity of control (Sham) mice under antagonist injections,[3]; [6],not affected
